Tests used:
[1] = tested on: oxazolone-induced DTH; assay: Oxazolone-induced delayed-type hypersensitivity (DTH), ear swelling; type: in vivo, BALB/c mice; settings: oral, 1 hour before oxazolone challenge; compared with the control (FIG. 5)
Source text: Anti inflammatory assay A delayed-type hypersensitivity (DTH) reaction is an expression of cell-mediated immunity and plays a major role in the pathology and chronicity of many inflammatory disorders. Delayed-type hypersensitivity (DTH) reactions can be induced by various allergens, including oxazolone, 2,4-dinitrofluorobenzene (DNFB) and sheep red blood cells (SRBCs). One of the most characteristic DTH phenomenons is contact hypersensitivity, which is characterized by swelling and by increased tissue levels of cytokines. Contact hypersensitivity (CHS) is a T cell-mediated immune reaction in response to cutaneous sensitization and challenge with reactive haptens that are capable of binding directly to soluble and cell-associated proteins and recognized by T cells in the context of self-MHC products. The cells that recognize antigen-protein complex in the skin are the Langerhans cells (LCs). […]
Ear swelling response will be determined by ear thickness measured with a micrometer before and 24 hours after oxazolone challenge and reported as the mean change in ear thickness (ΔT±S.E.M.). Percent suppression of ear swelling response will be calculated as % suppression=[1−(ΔT of sensitized mice exposed to experimental treatment/ΔT of sensitized mice exposed to vehicle treatment)]×100.

[2] = tested on: B16F10 murine melanoma cells; assay: Anti-metastasis assay: lung metastases in mice implanted with B16F10 melanoma cells; type: in vivo, female B6D2F1 mice; settings: i.p., start D3, foci count on D17 vs comparator mice; dose regimen of the value not stated (FIGS. 4A and B)
Protocol: Compound 1 and Compound 3 were tested for efficacy in inhibiting lung metastases in female B6D2F 1 mice implanted with B16F10 murine melanoma cells. Tumors were initiated on Day 1 (D1) by intravenously (i.v.) injecting 1×10^5 B16F10 tumor cells into the tail vein of test mice. Mice were sorted into three vehicle-treated control groups (n=20 or 10/group) and nine treatment groups (n=10/group). Compound 1 and Compound 3 monotherapies were administered at 10 mg/kg (2 mg/mL at 5 mL/kg) and at 20 mg/kg (4 mg/mL at 5 mL/kg), intraperitoneally (i.p.), daily for fourteen doses starting on D3 (qd×14 (start D3)). Compound 1 and Compound 3 monotherapies also were administered at 20 mg/kg (4 mg/mL at 5 mL/kg), i.p., twice daily for twenty-nine doses starting on D3 (bid×14.5 (start D3)). […]
The study endpoint was defined as 100 metastases per lung set in animals periodically sampled from the saline control group. […] All animals remaining on study were euthanized, their metastases were counted, and the mean±SEM foci count for each group was calculated. Efficacy was determined by an analysis of percent inhibition, the percent change in the mean foci count on D17 for treated versus comparator mice, and by statistical assessment of differences in foci counts between treated and comparator mice.

Row | Compound | anti-inflammatory activity (ear swelling response) [1] | efficacy in inhibiting lung metastases (percent inhibition of mean foci count) [2] [%]
1 | Cc1cc(C)nc(NS(=O)(=O)c2ccc(NC(=O)/C(=C\c3cccs3)NC(=O)c3cccs3)cc2)n1 [Compound 1] | same anti-inflammatory activity as the control | 51
2 | Cc1cc(S(=O)(=O)Nc2ncccn2)ccc1NC(=O)/C(=C\c1cccs1)NC(=O)c1cccs1 [Compound 3] | same anti-inflammatory activity as the control | 45
